# In ChEMBL document CHEMBL1201862, “PubChem BioAssay data set” (2004):
#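 Growth conditions: 96-well plates. Treatment: test compound, 48 hours, 5 concentrations. Analysis: linear interpolation between bracketing concentrations; unreached endpoints set to highest concentration. Abbreviation: GI50, concentration required for 50% inhibition of growth.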 The source made the active and inactive calls. Rule as the data show it: active = GI50 up to about 1.1 µM and inactive = higher.
# Columns and labels:
# Test in all cases: inhibition of tumour cell growth, NCI panel, 48 h
# [1] = tested on: HCT-116
# [2] = tested on: SK-MEL-28
# [3] = tested on: U-251
# [4] = tested on: UACC-62
# [5] = tested on: HT-29
# [6] = tested on: NCI-H23
# [7] = tested on: ACHN
# [8] = tested on: UACC-257
# [9] = tested on: M14
# [10] = tested on: PC-3
# [11] = tested on: SNB-75
# [12] = tested on: SF-295
# [13] = tested on: T47D
# [14] = tested on: NCI-H522
# [15] = tested on: DU-145
# [16] = tested on: CAKI-1
# [17] = tested on: HOP-92
# [18] = tested on: Malme-3M
# [19] = tested on: HL-60
# [20] = tested on: HCT-15
# [21] = tested on: BT-549
# [22] = tested on: OVCAR-4
# [23] = tested on: A549
# [24] = tested on: SK-MEL-5
# [25] = tested on: SK-OV-3
# [26] = tested on: 786-0
# [27] = tested on: LOX IMVI
# [28] = tested on: SNB-19
# [29] = tested on: RPMI-8226
# [30] = tested on: MDA-MB-435
# [31] = tested on: HOP-62
# [32] = tested on: MOLT-4
# [33] = tested on: IGROV-1
# [34] = tested on: MDA-N
# [35] = tested on: SW-620
# [36] = tested on: SF-539
# [37] = tested on: SF-268
# [38] = tested on: Hs-578T
# [39] = tested on: HCC 2998
# [40] = tested on: OVCAR-3
# [41] = tested on: KM12
# [42] = tested on: CCRF-CEM
# [43] = tested on: TK-10
# [44] = tested on: NCI/ADR-RES
# [45] = tested on: SR
# [46] = tested on: COLO 205
# [47] = tested on: MDA-MB-231
# [48] = tested on: OVCAR-8
# [49] = tested on: MCF7
# [50] = tested on: SN12C
# [51] = tested on: K562
# [52] = tested on: RXF 393
# [53] = tested on: NCI-H460
# [54] = tested on: UO-31
# [55] = tested on: NCI-H226
# [56] = tested on: SK-MEL-2
# [57] = tested on: EKVX
# [58] = tested on: OVCAR-5
# [59] = tested on: A498
smiles,measurement,setting,value
COC(=O)/C=C/c1cc2c(cc1-c1c(C(=O)O)cc(OC)c(OC)c1OC)OCO2,GI50,[1],> 10 µM (inactive)
same,GI50,[2],> 10 µM (inactive)
same,GI50,[3],> 10 µM (inactive)
same,GI50,[4],> 10 µM (inactive)
same,GI50,[5],> 10 µM (inactive)
same,GI50,[6],> 10 µM (inactive)
same,GI50,[7],> 10 µM (inactive)
same,GI50,[8],> 10 µM (inactive)
same,GI50,[9],> 10 µM (inactive)
same,GI50,[10],> 10 µM (inactive)
same,GI50,[11],> 10 µM (inactive)
same,GI50,[12],> 10 µM (inactive)
same,GI50,[13],> 10 µM (inactive)
same,GI50,[14],> 10 µM (inactive)
same,GI50,[15],> 10 µM (inactive)
same,GI50,[16],> 10 µM (inactive)
same,GI50,[17],> 10 µM (inactive)
same,GI50,[18],> 10 µM (inactive)
same,GI50,[19],> 10 µM (inactive)
same,GI50,[20],> 10 µM
same,GI50,[21],> 10 µM (inactive)
same,GI50,[22],> 10 µM (inactive)
same,GI50,[23],> 10 µM (inactive)
same,GI50,[24],> 10 µM (inactive)
same,GI50,[25],> 10 µM (inactive)
same,GI50,[26],> 10 µM (inactive)
same,GI50,[27],> 10 µM (inactive)
same,GI50,[28],> 10 µM (inactive)
same,GI50,[29],> 10 µM (inactive)
same,GI50,[30],> 10 µM (inactive)
same,GI50,[31],> 10 µM (inactive)
same,GI50,[32],> 10 µM (inactive)
same,GI50,[33],> 10 µM (inactive)
same,GI50,[34],> 10 µM (inactive)
same,GI50,[35],> 10 µM (inactive)
same,GI50,[36],> 10 µM (inactive)
same,GI50,[37],> 10 µM (inactive)
same,GI50,[38],> 10 µM (inactive)
same,GI50,[39],> 10 µM (inactive)
same,GI50,[40],> 10 µM (inactive)
same,GI50,[41],> 10 µM (inactive)
same,GI50,[42],> 10 µM (inactive)
same,GI50,[43],> 10 µM (inactive)
same,GI50,[44],> 10 µM (inactive)
same,GI50,[45],> 10 µM (inactive)
same,GI50,[46],> 10 µM (inactive)
same,GI50,[47],> 10 µM (inactive)
same,GI50,[48],> 10 µM (inactive)
same,GI50,[49],> 10 µM (inactive)
same,GI50,[50],> 10 µM (inactive)
same,GI50,[51],> 10 µM (inactive)
Cn1c(=S)[nH]c2sc3c(c2c1=O)CCSC3,GI50,[1],34.8 µM (inactive)
same,GI50,[3],40.5 µM (inactive)
same,GI50,[4],24.8 µM (inactive)
same,GI50,[5],29.9 µM (inactive)
same,GI50,[6],36.9 µM (inactive)
same,GI50,[52],3.05 µM (inactive)
same,GI50,[7],42.9 µM (inactive)
same,GI50,[8],41.8 µM (inactive)
same,GI50,[9],35.2 µM (inactive)
same,GI50,[10],44.2 µM (inactive)
same,GI50,[11],> 100 µM (inactive)
same,GI50,[12],29.9 µM (inactive)
same,GI50,[13],25.1 µM (inactive)
same,GI50,[14],36.9 µM (inactive)
same,GI50,[15],24.3 µM (inactive)
same,GI50,[16],44.8 µM (inactive)
same,GI50,[17],23.9 µM (inactive)
same,GI50,[18],58.2 µM (inactive)
same,GI50,[19],16.7 µM (inactive)
same,GI50,[20],31 µM
same,GI50,[21],32.4 µM (inactive)
same,GI50,[53],35.8 µM (inactive)
same,GI50,[22],43 µM (inactive)
same,GI50,[23],43.1 µM (inactive)
same,GI50,[24],36 µM (inactive)
same,GI50,[25],90.8 µM (inactive)
same,GI50,[26],76.6 µM (inactive)
same,GI50,[27],36.6 µM (inactive)
same,GI50,[28],47.4 µM (inactive)
same,GI50,[29],32.4 µM (inactive)
same,GI50,[30],49.1 µM (inactive)
same,GI50,[31],25.9 µM (inactive)
same,GI50,[32],33.8 µM (inactive)
same,GI50,[33],23.9 µM (inactive)
same,GI50,[54],11.7 µM (inactive)
same,GI50,[34],54.7 µM (inactive)
same,GI50,[35],35.7 µM (inactive)
same,GI50,[36],54.1 µM (inactive)
same,GI50,[37],26.2 µM (inactive)
same,GI50,[38],> 100 µM (inactive)
same,GI50,[55],22 µM (inactive)
same,GI50,[39],21.8 µM (inactive)
same,GI50,[40],24.8 µM (inactive)
same,GI50,[41],32.1 µM (inactive)
same,GI50,[43],80.5 µM (inactive)
same,GI50,[56],> 100 µM (inactive)
same,GI50,[44],31.3 µM (inactive)
same,GI50,[46],47.1 µM (inactive)
same,GI50,[47],> 100 µM (inactive)
same,GI50,[48],39.8 µM (inactive)
same,GI50,[49],44.3 µM (inactive)
same,GI50,[50],40 µM (inactive)
same,GI50,[51],42.9 µM (inactive)
same,GI50,[57],20.8 µM (inactive)
same,GI50,[58],53.7 µM (inactive)
same,GI50,[59],31.6 µM (inactive)
